From US12649750B2, “Macrocyclic compounds, compositions, and methods of using thereof” (Sionna Therapeutics Inc., priority 2022, dated 2026)

Tests used:
NBD1 = target: T1, NBD1 (Homo sapiens, UniProt P13569); experiment: Aggregation analysis using differential static light scattering (DSLS), thermal stability of NBD1 (ΔTagg); type: binding; details: ΔTagg versus DMSO control, NBD1 0.2 mg/ml
T1 construct: Purified recombinant NBD1 was produced using previously described methods; made in house
Procedure, shortened: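 Differential static light scattering read from 25° C. to 70° C. every 0.5° C., ramp 1° C./min, on recombinant NBD1 (0.2 mg/ml; Tris/NaCl/MgCl2 buffer with 2 mM ATP, 2 mM DTT, pH 7.6, 1% glycerol) plus compound. Reported ΔTagg subtracts averaged DMSO Tagg from inflection-point Tagg; categories A ≤5, B >5-10, C >10-25° C.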

CFTR = target: T2, CFTR (Homo sapiens, UniProt P13569, DEL508-508); experiment: TECC24 AUC fold over DMSO @10 μM, CFTR-mediated transepithelial chloride transport in CF-HBE cells; type: cell-based; details: test agent AUC divided by DMSO vehicle AUC, primary CF-HBE cells, ΔF508 homozygous donor, 48 hours incubation
T2 construct: Primary human bronchial epithelial cells from a ΔF508 homozygous CF donor; host or cells: primary human bronchial epithelial cells (CF-HBE), ΔF508 homozygous donor
T2 sequence (P13569 with tags, fused parts or gaps DEL508-508): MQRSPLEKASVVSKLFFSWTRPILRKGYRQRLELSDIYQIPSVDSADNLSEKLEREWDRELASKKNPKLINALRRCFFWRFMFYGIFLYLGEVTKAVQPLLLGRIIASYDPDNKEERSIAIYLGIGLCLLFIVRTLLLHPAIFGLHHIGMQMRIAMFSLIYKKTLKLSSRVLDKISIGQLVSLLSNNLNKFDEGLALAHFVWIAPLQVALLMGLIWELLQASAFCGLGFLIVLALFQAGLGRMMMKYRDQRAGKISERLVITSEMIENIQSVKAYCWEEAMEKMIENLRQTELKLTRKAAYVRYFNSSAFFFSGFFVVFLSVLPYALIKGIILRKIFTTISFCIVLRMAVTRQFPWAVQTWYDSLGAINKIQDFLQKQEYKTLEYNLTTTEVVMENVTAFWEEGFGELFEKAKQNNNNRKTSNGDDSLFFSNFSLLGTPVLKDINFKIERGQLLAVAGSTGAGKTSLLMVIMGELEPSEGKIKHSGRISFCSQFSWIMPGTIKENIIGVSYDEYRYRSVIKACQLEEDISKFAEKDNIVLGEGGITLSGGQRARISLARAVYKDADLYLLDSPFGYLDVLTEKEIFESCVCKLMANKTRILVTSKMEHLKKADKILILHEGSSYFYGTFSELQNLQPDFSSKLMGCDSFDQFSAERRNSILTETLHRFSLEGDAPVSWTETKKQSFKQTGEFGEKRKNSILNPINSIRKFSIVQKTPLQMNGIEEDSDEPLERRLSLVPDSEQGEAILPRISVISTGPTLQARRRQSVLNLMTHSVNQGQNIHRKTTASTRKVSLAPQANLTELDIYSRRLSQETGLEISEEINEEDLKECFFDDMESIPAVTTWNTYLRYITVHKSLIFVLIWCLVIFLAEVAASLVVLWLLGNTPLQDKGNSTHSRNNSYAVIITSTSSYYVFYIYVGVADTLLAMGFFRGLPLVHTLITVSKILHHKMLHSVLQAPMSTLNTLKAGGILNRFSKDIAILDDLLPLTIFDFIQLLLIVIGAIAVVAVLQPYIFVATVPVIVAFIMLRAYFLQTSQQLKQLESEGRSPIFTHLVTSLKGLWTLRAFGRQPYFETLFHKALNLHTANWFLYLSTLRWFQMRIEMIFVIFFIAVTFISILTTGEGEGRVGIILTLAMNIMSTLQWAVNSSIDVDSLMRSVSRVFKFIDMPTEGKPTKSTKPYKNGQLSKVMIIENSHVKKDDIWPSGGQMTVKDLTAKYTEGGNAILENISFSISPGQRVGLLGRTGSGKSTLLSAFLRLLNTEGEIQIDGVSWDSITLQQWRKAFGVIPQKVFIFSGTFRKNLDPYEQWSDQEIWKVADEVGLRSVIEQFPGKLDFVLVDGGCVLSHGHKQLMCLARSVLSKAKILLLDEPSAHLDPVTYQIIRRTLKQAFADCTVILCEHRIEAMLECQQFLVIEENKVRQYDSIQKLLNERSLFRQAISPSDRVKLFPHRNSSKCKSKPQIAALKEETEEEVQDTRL
Procedure, shortened: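 ΔF508-homozygous primary bronchial epithelial cells incubated 48 h at 36.5° C with compound (10 μM) in IL-13-containing medium, then TECC24 current-clamp recording in pH 7.4 Hepes saline with benzamil 10 μM, forskolin 10 μM, then CFTR inhibitor-172 20 μM. Equivalent Cl− current AUC between forskolin and inhibitor, expressed as fold over DMSO.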

T1 sequence (P13569 423-646 limits assumed): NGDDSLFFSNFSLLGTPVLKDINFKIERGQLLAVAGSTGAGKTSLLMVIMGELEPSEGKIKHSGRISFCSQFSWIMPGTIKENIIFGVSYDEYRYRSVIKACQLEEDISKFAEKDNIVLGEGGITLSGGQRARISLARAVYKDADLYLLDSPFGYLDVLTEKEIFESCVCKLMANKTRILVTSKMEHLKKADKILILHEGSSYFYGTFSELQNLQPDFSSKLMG

Row | Compound | DSLS 3D (100 μM ΔT) (NBD1) | TECC (AUC, 10 μM) (CFTR)
1 | Cn1nc2nc1-c1cc(ccc1F)Oc1c(F)cc3[nH]ccc3c1CCS(=O)(=O)CC(C)(C)CCCC2(C)c1cccc(CC(C)(C)C(=O)O)c1 (single isomer, unassigned) [Compound 29A, 3-[3-(22,28-Difluoro-3,6,10,10-tetramethyl-12,12-dioxo-24-oxa-12lambda6-thia-3,4,19,30-tetrazapentacyclo[23.3.1.12,5.015,23.016,20]triaconta-1(29),2(30),4,15,17,20,22,25,27-nonaen-6-yl)phenyl]-2,2-dimethyl-propanoic acid] | C (a value greater than 10 °C and less than or equal to 25 °C is marked “C”) | C (a value between 20 and 80 is marked “C”)
2 | Cn1nc2nc1-c1cc(ccc1F)Oc1c(F)cc3[nH]ccc3c1CCS(=O)(=O)CC(C)(C)CCCC2(C)c1cccc(CC(C)(C)C(=O)O)c1 (single isomer, unassigned) [Compound 29B, 3-[3-(22,28-Difluoro-3,6,10,10-tetramethyl-12,12-dioxo-24-oxa-12lambda6-thia-3,4,19,30-tetrazapentacyclo[23.3.1.12,5.015,23.016,20]triaconta-1(29),2(30),4,15,17,20,22,25,27-nonaen-6-yl)phenyl]-2,2-dimethyl-propanoic acid] | A (an ΔTagg value less than or equal to 5 °C is marked “A”) | A (a TECC value less than 12 is marked “A”)
3 | Cn1nc2nc1-c1cc(ccc1F)C(O)c1c(F)cc3[nH]ccc3c1CCS(=O)(=O)CC(C)(C)CCCC2(C)c1cccc(CCC(=O)O)c1 (single isomer, unassigned) [Compound 30A, 3-[3-(22,28-difluoro-24-hydroxy-3,6,10,10-tetramethyl-12,12-dioxo-12lambda6-thia-3,4,19,30-tetrazapentacyclo[23.3.1.12,5.015,23.016,20]triaconta-1(29),2(30),4,15,17,20,22,25,27-nonaen-6-yl)phenyl]propanoic acid] | C (a value greater than 10 °C and less than or equal to 25 °C is marked “C”) | C (a value between 20 and 80 is marked “C”)
4 | Cn1nc2nc1-c1cc(ccc1F)C(O)c1c(F)cc3[nH]ccc3c1CCS(=O)(=O)CC(C)(C)CCCC2(C)c1cccc(CCC(=O)O)c1 (single isomer, unassigned) [Compound 30B, 3-[3-(22,28-difluoro-24-hydroxy-3,6,10,10-tetramethyl-12,12-dioxo-12lambda6-thia-3,4,19,30-tetrazapentacyclo[23.3.1.12,5.015,23.016,20]triaconta-1(29),2(30),4,15,17,20,22,25,27-nonaen-6-yl)phenyl]propanoic acid] | B (a value above 5 °C and less than or equal to 10 °C is marked “B”) | B (a value between 12-20 is marked “B”)
5 | Cn1nc2nc1-c1cc(ccc1F)C(O)c1c(F)cc3[nH]ccc3c1CCS(=O)(=O)CC(C)(C)CCCC2(C)c1cccc(CCC(=O)O)c1 (single isomer, unassigned) [Compound 30C, 3-[3-(22,28-difluoro-24-hydroxy-3,6,10,10-tetramethyl-12,12-dioxo-12lambda6-thia-3,4,19,30-tetrazapentacyclo[23.3.1.12,5.015,23.016,20]triaconta-1(29),2(30),4,15,17,20,22,25,27-nonaen-6-yl)phenyl]propanoic acid] | B (a value above 5 °C and less than or equal to 10 °C is marked “B”) | C (a value between 20 and 80 is marked “C”)
6 | Cn1nc2nc1-c1cc(ccc1F)C(O)c1c(F)cc3[nH]ccc3c1CCS(=O)(=O)CC(C)(C)CCCC2(C)c1cccc(CCC(=O)O)c1 (single isomer, unassigned) [Compound 30D, 3-[3-(22,28-difluoro-24-hydroxy-3,6,10,10-tetramethyl-12,12-dioxo-12lambda6-thia-3,4,19,30-tetrazapentacyclo[23.3.1.12,5.015,23.016,20]triaconta-1(29),2(30),4,15,17,20,22,25,27-nonaen-6-yl)phenyl]propanoic acid] | C (a value greater than 10 °C and less than or equal to 25 °C is marked “C”) | A (a TECC value less than 12 is marked “A”)
7 | COC(=O)CCc1cccc(C2(C)CCCC(C)(C)CS(=O)(=O)CCc3c(c(F)cc4[nH]ccc34)C(=O)c3ccc(F)c(c3)-c3nc2nn3C)c1 (single isomer, unassigned) [Compound 31A, methyl 3-[3-[22,28-difluoro-3,6,10,10-tetramethyl-12,12,24-trioxo-12lambda6-thia-3,4,19,30-tetrazapentacyclo[23.3.1.12,5.015,23.016,20]triaconta-1(29),2(30),4,15,17,20,22,25,27-nonaen-6-yl]phenyl]propanoate] | B (a value above 5 °C and less than or equal to 10 °C is marked “B”) | C (a value between 20 and 80 is marked “C”)
8 | COC(=O)CCc1cccc(C2(C)CCCC(C)(C)CS(=O)(=O)CCc3c(c(F)cc4[nH]ccc34)C(=O)c3ccc(F)c(c3)-c3nc2nn3C)c1 (single isomer, unassigned) [Compound 31B, methyl 3-[3-[22,28-difluoro-3,6,10,10-tetramethyl-12,12,24-trioxo-12lambda6-thia-3,4,19,30-tetrazapentacyclo[23.3.1.12,5.015,23.016,20]triaconta-1(29),2(30),4,15,17,20,22,25,27-nonaen-6-yl]phenyl]propanoate] | A (an ΔTagg value less than or equal to 5 °C is marked “A”) | B (a value between 12-20 is marked “B”)
9 | Cn1nc2nc1-c1cc(ccc1F)C(=O)c1c(F)cc3[nH]ccc3c1CCS(=O)(=O)CC(C)(C)CCCC2(C)c1cccc(CCC(=O)O)c1 (single isomer, unassigned) [Compound 31C, 3-[3-[22,28-difluoro-3,6,10,10-tetramethyl-12,12,24-trioxo-12lambda6-thia-3,4,19,30-tetrazapentacyclo[23.3.1.12,5.015,23.016,20]triaconta-1(29),2(30),4,15,17,20,22,25,27-nonaen-6-yl]phenyl]propanoic Acid] | C (a value greater than 10 °C and less than or equal to 25 °C is marked “C”) | C (a value between 20 and 80 is marked “C”)
10 | Cn1nc2nc1-c1cc(ccc1F)C(=O)c1c(F)cc3[nH]ccc3c1CCS(=O)(=O)CC(C)(C)CCCC2(C)c1cccc(CCC(=O)O)c1 (single isomer, unassigned) [Compound 31D, 3-[3-[22,28-difluoro-3,6,10,10-tetramethyl-12,12,24-trioxo-12lambda6-thia-3,4,19,30-tetrazapentacyclo[23.3.1.12,5.015,23.016,20]triaconta-1(29),2(30),4,15,17,20,22,25,27-nonaen-6-yl]phenyl]propanoic acid] | A (an ΔTagg value less than or equal to 5 °C is marked “A”) | C (a value between 20 and 80 is marked “C”)
11 | Cn1nc2nc1-c1cc(ccc1F)Cc1c(F)cc3[nH]ccc3c1CCS(=O)(=O)CC(C)(C)CCCC2(C)c1cccc(CCC(=O)O)c1 (single isomer, unassigned) [Compound 32A, 3-[3-(22,28-Difluoro-3,6,10,10-tetramethyl-12,12-dioxo-12lambda6-thia-3,4,19,30-tetrazapentacyclo[23.3.1.12,5.015,23.016,20]triaconta-1(29),2(30),4,15,17,20,22,25,27-nonaen-6-yl)phenyl]propanoic Acid] | A (an ΔTagg value less than or equal to 5 °C is marked “A”) | A (a TECC value less than 12 is marked “A”)
12 | Cn1nc2nc1-c1cc(ccc1F)Cc1c(F)cc3[nH]ccc3c1CCS(=O)(=O)CC(C)(C)CCCC2(C)c1cccc(CCC(=O)O)c1 (single isomer, unassigned) [Compound 32B, 3-[3-(22,28-Difluoro-3,6,10,10-tetramethyl-12,12-dioxo-12lambda6-thia-3,4,19,30-tetrazapentacyclo[23.3.1.12,5.015,23.016,20]triaconta-1(29),2(30),4,15,17,20,22,25,27-nonaen-6-yl)phenyl]propanoic Acid] | C (a value greater than 10 °C and less than or equal to 25 °C is marked “C”) | C (a value between 20 and 80 is marked “C”)
13 | CC(Cc1cccc(C2(C)CCCC(C)(C)CS(=O)(=O)CCc3c(c(F)cc4[nH]ccc34)Sc3ccc(F)c(c3)-c3nc2nn3C)c1)C(=O)O (single isomer, unassigned) [Compound 33A, 3-[3-(22,28-difluoro-3,6,10,10-tetramethyl-12,12-dioxo-12lambda6,24-dithia-3,4,19,30-tetrazapentacyclo[23.3.1.12,5.015,23.016,20]triaconta-1(29),2(30),4,15,17,20,22,25,27-nonaen-6-yl)phenyl]-2-methyl-propanoic Acid] | C (a value greater than 10 °C and less than or equal to 25 °C is marked “C”) | C (a value between 20 and 80 is marked “C”)
